The target of the experiment is T1, asialoglycoprotein receptor (ASGPR) (Homo sapiens, UniProt P07306).
T1 sequence (P07306 1-291): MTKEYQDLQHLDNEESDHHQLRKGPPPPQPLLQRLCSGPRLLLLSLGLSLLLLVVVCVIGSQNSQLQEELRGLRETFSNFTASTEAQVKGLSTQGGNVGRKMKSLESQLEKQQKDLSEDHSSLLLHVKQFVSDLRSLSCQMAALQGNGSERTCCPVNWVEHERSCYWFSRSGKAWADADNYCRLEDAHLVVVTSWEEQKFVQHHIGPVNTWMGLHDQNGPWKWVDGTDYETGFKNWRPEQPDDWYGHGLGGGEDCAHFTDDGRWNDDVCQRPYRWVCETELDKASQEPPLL
The experiment is described as follows: Surface plasmon resonance binding to immobilized ASGPR. The settings on record: calculated from 1/Kads.

Structures are written as SMILES.

Regarding `CC(=O)N[C@H]1C(O)O[C@H](CO)[C@H](O)[C@@H]1O` (mixture of isomers) [GalNAc, N-acetylgalactosamine], the “calculated ligand efficiency (LE)” value was 0.41.

(Values after paper PMC6991140 (Journal of the American Chemical Society, 2017).)
